{"source": "patent US9695205B2", "about": "“Amide compounds for treatment of complement mediated disorders” (Achillion Pharmaceuticals, Inc., priority 2014, dated 2017)", "molecular_target": "Human factor D (Homo sapiens (Human), UniProt P00746)", "sequence (P00746 26-253)": "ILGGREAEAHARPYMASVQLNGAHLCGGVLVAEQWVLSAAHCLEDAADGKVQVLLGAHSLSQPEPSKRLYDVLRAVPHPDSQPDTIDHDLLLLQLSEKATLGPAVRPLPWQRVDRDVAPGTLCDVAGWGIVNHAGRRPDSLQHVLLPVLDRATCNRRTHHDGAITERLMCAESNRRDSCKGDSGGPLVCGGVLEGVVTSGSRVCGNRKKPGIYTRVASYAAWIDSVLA", "test": "Human Factor D Assay", "type": "biochemical", "details": "Human factor D 80 nM, substrate Z-L-Lys-SBzl and DTNB 100 μM each, pH 7.5", "method": "Example 14. Human Factor D Assay\nHuman factor D (purified from human serum, Complement Technology, Inc.) at 80 nM final concentration is incubated with test compound at various concentrations for 5 minutes at room temperature in 50 mM Tris, 1M NaCl, pH 7.5. A synthetic substrate Z-L-Lys-SBzl and DTNB (Ellman's reagent) are added to final concentrations of 100 μM each. The increase in color is recorded at OD405 nm in a microplate in kinetic mode over 30 minutes with 30 second time points in a spectrofluorimeter. IC50 values are calculated by non-linear regression from the percentage of inhibition of complement factor D activity as a function of test compound concentration.", "note": "pIC50: −log10 of the molar value."}
{"compound": "CC(=O)c1cn(CC(=O)N2C[C@H](F)C[C@H]2C(=O)NCc2cccc(Cl)c2F)c2ccc(C(=O)N3CC4CCC3C4)cc12", "note": "(stereo partly drawn) [Compound 39, (2S,4R)-1-(2-(3-acetyl-5-(2-azabicyclo[2.2.1]heptane-2-carbonyl)-1H-indol-1-yl)acetyl)-N-(3-chloro-2-fluorobenzyl)-4-fluoropyrrolidine-2-carboxamide]", "values": [{"measurement": "pIC50", "result": "> 6.00"}]}
{"compound": "CC(=O)c1cn(CC(=O)N2C[C@H](F)C[C@H]2C(=O)NCc2cccc(Cl)c2F)c2cc(C(=O)NS(C)(=O)=O)ccc12", "note": "[Compound 43, 3-acetyl-1-(2-((2S,4R)-2-(3-chloro-2-fluorobenzylcarbamoyl)-4-fluoropyrrolidin-1-yl)-2-oxoethyl)-N-(methylsulfonyl)-1H-indole-6-carboxamide]", "values": [{"measurement": "pIC50", "result": "> 6.00"}]}
{"compound": "CC(=O)c1cn(CC(=O)N2C[C@H](F)C[C@H]2C(=O)NCc2cccc(Cl)c2F)c2ccc(NC(=O)NCc3ncccn3)cc12", "note": "[Compound 8, (2S,4R)-1-(2-(3-acetyl-5-(3-(pyrimidin-2-ylmethyl)ureido)-1H-indol-1-yl)acetyl)-N-(3-chloro-2-fluorobenzyl)-4-fluoropyrrolidine-2-carboxamide]", "values": [{"measurement": "pIC50", "result": "> 6.00"}]}
{"compound": "CC(=O)c1cn(CC(=O)N2C[C@H](F)C[C@H]2C(=O)NCc2cccc(Cl)c2F)c2ccc(NC(=O)Nc3cncnc3)cc12", "note": "[Compound 23, (2S,4R)-1-(2-(3-acetyl-5-(3-pyrimidin-5-ylureido)-1H-indol-1-yl)acetyl)-N-(3-chloro-2-fluorobenzyl)-4-fluoropyrrolidine-2-carboxamide]", "values": [{"measurement": "pIC50", "result": "> 6.00"}]}
{"compound": "NC(=O)c1nn(CC(=O)N2C[C@H](F)C[C@H]2C(=O)Nc2cccc(Br)n2)c2ccc(NC(=O)N3CCCC(F)(F)C3)cc12", "note": "[Compound 33, 1-(2-((2S,4R)-2-(6-bromopyridin-2-ylcarbamoyl)-4-fluoropyrrolidin-1-yl)-2-oxoethyl)-5-(3,3-difluoropiperidine-1-carboxamido)-1H-indazole-3-carboxamide]", "values": [{"measurement": "pIC50", "result": "> 6.00"}]}
{"compound": "CC(=O)c1cn(CC(=O)N2C[C@H](F)C[C@H]2C(=O)Nc2cccc(C(F)(F)F)n2)c2ccc(NC(=O)N3CCCC(F)(F)C3)cc12", "note": "[Compound 20, N-(3-acetyl-1-(2-((2S,4R)-4-fluoro-2-(6-(trifluoromethyl)pyridin-2-ylcarbamoyl)pyrrolidin-1-yl)-2-oxoethyl)-1H-indol-5-yl)-3,3-difluoropiperidine-1-carboxamide]", "values": [{"measurement": "pIC50", "result": "> 6.00"}]}
{"compound": "CC(=O)c1cn(CC(=O)N2[C@@H]3C[C@@H]3C[C@H]2C(=O)Nc2cccc(OC(F)(F)F)c2F)c2ccc(NC(=O)NC3CC3)cc12", "note": "[Compound 11, (1R,3S,5R)-2-(2-(3-acetyl-5-(3-cyclopropylureido)-1H-indol-1-yl)acetyl)-N-(2-fluoro-3-(trifluoromethoxy)phenyl)-2-azabicyclo[3.1.0]hexane-3-carboxamide]", "values": [{"measurement": "pIC50", "result": "> 6.00"}]}
{"compound": "CC(=O)c1cn(CC(=O)N2C[C@H](F)C[C@H]2C(=O)Nc2cccc(OC(F)(F)F)c2F)c2ccc(NC(=O)N3CCCC(F)(F)C3)cc12", "note": "[Compound 17, N-(3-acetyl-1-(2-((2S,4R)-4-fluoro-2-(2-fluoro-3-(trifluoromethoxy)phenylcarbamoyl)pyrrolidin-1-yl)-2-oxoethyl)-1H-indol-5-yl)-3,3-difluoropiperidine-1-carboxamide]", "values": [{"measurement": "pIC50", "result": "> 6.00"}]}
{"compound": "CC(=O)c1cn(CC(=O)N2C[C@H](F)C[C@H]2C(=O)NCc2cccc(Cl)c2F)c2cc(C(=O)N[C@H]3CCNC3)ccc12", "note": "[Compound 45, 3-acetyl-1-(2-((2S,4R)-2-(3-chloro-2-fluorobenzylcarbamoyl)-4-fluoropyrrolidin-1-yl)-2-oxoethyl)-N-((S)-pyrrolidin-3-yl)-1H-indole-6-carboxamide]", "values": [{"measurement": "pIC50", "result": "> 6.00"}]}
{"compound": "CC(=O)c1cn(CC(=O)N2C[C@H](F)C[C@H]2C(=O)NCc2cccc(Cl)c2F)c2ccc(NC(=O)N3CCCC(F)(F)C3)cc12", "note": "[Compound 16, N-(3-acetyl-1-(2-((2S,4R)-2-(3-chloro-2-fluorobenzylcarbamoyl)-4-fluoropyrrolidin-1-yl)-2-oxoethyl)-1H-indol-5-yl)-3,3-difluoropiperidine-1-carboxamide]", "values": [{"measurement": "pIC50", "result": "> 6.00"}]}
{"compound": "NC(=O)c1nn(CC(=O)N2C[C@H](F)C[C@H]2C(=O)Nc2cccc(-c3ccccc3Cl)c2F)c2ccc(NC(=O)NCc3ncccn3)cc12", "note": "[Compound 32, 1-(2-((2S,4R)-2-(2′-chloro-2-fluorobiphenyl-3-ylcarbamoyl)-4-fluoropyrrolidin-1-yl)-2-oxoethyl)-5-(3-(pyrimidin-2-ylmethyl)ureido)-1H-indazole-3-carboxamide]", "values": [{"measurement": "pIC50", "result": "> 6.00"}]}
{"compound": "CC(=O)c1cn(CC(=O)N2[C@@H]3C[C@@H]3C[C@H]2C(=O)N[C@H](C)c2cccc(Cl)c2F)c2ccc(NC(=O)NC3CC3)cc12", "note": "[Compound 5, (1R,3S,5R)-2-(2-(3-acetyl-5-(3-cyclopropylureido)-1H-indol-1-yl)acetyl)-N-((R)-1-(3-chloro-2-fluorophenyl)ethyl)-2-azabicyclo[3.1.0]hexane-3-carboxamide]", "values": [{"measurement": "pIC50", "result": "> 6.00"}]}
{"compound": "CC(=O)c1cn(CC(=O)N2C[C@H](F)C[C@H]2C(=O)NCc2cccc(Cl)c2F)c2ccc(C(=O)N3CCCC(F)(F)C3)cc12", "note": "[Compound 40, (2S,4R)-1-(2-(3-acetyl-5-(3,3-difluoropiperidine-1-carbonyl)-1H-indol-1-yl)acetyl)-N-(3-chloro-2-fluorobenzyl)-4-fluoropyrrolidine-2-carboxamide]", "values": [{"measurement": "pIC50", "result": "> 6.00"}]}
{"compound": "CC(=O)c1cn(CC(=O)N2[C@@H]3C[C@@H]3C[C@H]2C(=O)NCc2cccc(Cl)c2F)c2ccc(NC(=O)NC3CC3)cc12", "note": "[Compound 3, (1R,3S,5R)-2-(2-(3-acetyl-5-(3-cyclopropylureido)-1H-indol-1-yl)acetyl)-N-(3-chloro-2-fluorobenzyl)-2-azabicyclo[3.1.0]hexane-3-carboxamide]", "values": [{"measurement": "pIC50", "result": "> 6.00"}]}
{"compound": "CC(=O)c1cn(CC(=O)N2C[C@H](F)C[C@H]2C(=O)NCc2cccc(Cl)c2F)c2cc(NC(=O)OC(C)(C)C)ccc12", "note": "[Compound 37, tert-butyl 3-acetyl-1-(2-((2S,4R)-2-(3-chloro-2-fluorobenzylcarbamoyl)-4-fluoropyrrolidin-1-yl)-2-oxoethyl)-1H-indol-6-ylcarbamate]", "values": [{"measurement": "pIC50", "result": "> 6.00"}]}
{"compound": "CC(=O)c1cn(CC(=O)N2C[C@H](F)C[C@H]2C(=O)NCc2cccc(Cl)c2F)c2ccc(NC(=O)N3CCC(F)(F)C3)cc12", "note": "[Compound 13]", "values": [{"measurement": "pIC50", "result": "> 6.00"}]}
{"compound": "CC(=O)c1cn(CC(=O)N2C[C@H](F)C[C@H]2C(=O)NCc2cccc(Cl)c2F)c2ccc(C(=O)NC3CC3)cc12", "note": "[Compound 41, 3-acetyl-1-(2-((2S,4R)-2-(3-chloro-2-fluorobenzylcarbamoyl)-4-fluoropyrrolidin-1-yl)-2-oxoethyl)-N-cyclopropyl-1H-indole-5-carboxamide]", "values": [{"measurement": "pIC50", "result": "> 6.00"}]}
{"compound": "CC(=O)c1cn(CC(=O)N2C[C@H](F)C[C@H]2C(=O)NCc2cccc(Cl)c2F)c2cc(C(=O)NS(=O)(=O)C3CC3)ccc12", "note": "[Compound 48, 3-acetyl-1-(2-((2S,4R)-2-(3-chloro-2-fluorobenzylcarbamoyl)-4-fluoropyrrolidin-1-yl)-2-oxoethyl)-N-(cyclopropylsulfonyl)-1H-indole-6-carboxamide]", "values": [{"measurement": "pIC50", "result": "> 6.00"}]}
{"compound": "CC(=O)c1cn(CC(=O)N2C[C@H](F)C[C@H]2C(=O)NCc2cccc(Cl)c2F)c2cc(C(=O)N3CCC(C(=O)O)C3)ccc12", "note": "(stereo partly drawn) [Compound 52, 1-(3-acetyl-1-(2-((2S,4R)-2(3-chloro-2-fluorobenzylcarbamoyl)-4-fluoropyrrolidin-1-yl)-2-oxoethyl)-1H-indole-6-carbonyl) pyrrolidine-3-carboxylic acid]", "values": [{"measurement": "pIC50", "result": "> 6.00"}]}
